In patent publication US6531485B2, “Prostaglandin agonists” (priority 1997, dated 2003):

Assays:
[1] = test system: 293S cells transfected with EP2; test: Kidney regeneration assay: BMP-7 expression by Northern blot in EP2 293S cells; assay type: cell-based, human; conditions: 10^-6M, RNA at 8, 16 and 24 hours
Experimental: (§1) Methods: 293S and EP2 293S cells are grown in Dulbecco's Modified Egale medium (DMEM, Gibco, BRL; Gaithersburg, Md.). […] Cells are harvested and RNA is extracted at 8, 16 and 24 hours. Northern blot analysis of total […] is carried out by probing the blots with ^32P-labeled BMP-7 probe. The blots are normalized for RNA loading by hybridization with ^32P-labeled 18s ribosomal RNA probe. […] Given the known role of BMP-7 in kidney regeneration and the ability of an prostaglandin agonist to induce BMP-7 expression in 293S kidney cells in a time and receptor specific manner indicates a role for prostaglandin agonist in kidney regeneration.

wild type 293S cells = test: Kidney regeneration assay: BMP-7 expression by Northern blot in wild type 293S cells; assay type: cell-based, human; conditions: parental 293S cell line, 10^-6M, RNA at 8, 16 and 24 hours
Experimental: as §1

## CCCCC[C@H](O)/C=C/[C@H]1[C@H](O)CC(=O)[C@@H]1C/C=C\CCCC(=O)O [PGE2, Prostaglandin E2]
[1]
  induction of expression of BMP-7: induce the expression of BMP-7 in the EP2 293S cells in a time dependent manner
Wild type 293S cells
  induction of expression of BMP-7: generally not observed
